Results published in patent US20060110456A1, “Method for biocidal and/or biostatic treatment and compositions therefor” (NATIONAL UNIVERSITY OF SINGAPORE, priority 2004, published 2006).

Experiments:
[1] = system: Balanus amphitrite cyprids; conditions: reported value of commercially available biocide (Willemsen et al., 1998); cited from earlier work
[2] = system: marine bacteria (26 strains); assay: Disk inhibition assay; type: cell-based, marine bacteria isolated from Singapore fouling communities; conditions: for zone of inhibition at 10 µg/disc: 10 μg per disc; for zone of inhibition at 25 µg/disc: 25 μg per disc; for zone of inhibition at 5 µg/disc: 5 μg per disc; for zone of inhibition at 30 µg/disc: 30 μg per disc
Experimental: Preparation of Drugs onto Disks for Assay
The non-antibiotic pharmaceuticals of Table 1 were prepared in the following way. A tablet with a known amount of active ingredient (as stated in the product information) was ground in a mortar and pestle and suspended in sterile deionized water to a concentration of 2 mg ml^−1. These samples were sonicated for at least 1 min. […] The two halves of the capsule were separated and the powder released straight into a bottle and suitable amount of water added to make a concentration of 2 mg ml^−1.
As a comparison to the pharmaceuticals, to determine the susceptibility of the bacterial isolates to conventional antibiotics, commercially available antibiotic discs were used. Antibiotic discs (Oxoid® CT series) containing Ampicillin [Amp] (2 and 10 μg), Erythromycin [Ery] (5 and 15 μg), Streptomycin [Str] (10 and 25 μg) and Tetracycline [Tet] (5 and 30 μg) were placed on lawns of the bacterial strains inoculated as described below.
Sterile swabs dipped into the cultures were used to inoculate Marine Agar plates with a bacterial lawn by smearing the culture over the surface. After inoculating the plates, discs with antibiotics, pharmaceuticals or control blanks were placed on each plate. Each concentration of antibiotic or pharmaceutical was tested with three replicates on three separate occasions. After the disks were placed on the agar surface, plates were incubated overnight in the dark at 30° C. After incubation, plates were examined for zones of inhibition or clearing around control and treated disks. The diameter of any zone of clearing or inhibition was measured using Vernier calipers.
The assay was repeated three times with three replicates for each concentration used, each time.

In the case of CCCCCCCCn1sc(Cl)c(Cl)c1=O [Sea Nine], the ED50 [1] is listed as 0.33 ppm.

[H]/N=C(/N)N[C@H]1[C@H](O)[C@@H](O)[C@H](O[C@@H]2O[C@@H](C)[C@](O)(C=O)[C@H]2O[C@@H]2O[C@@H](CO)[C@H](O)[C@@H](O)[C@@H]2NC)[C@@H](N/C(N)=N\[H])[C@@H]1O [Str, streptomycin] showed a zone of inhibition at 10 µg/disc ([2]; strain 1 (Rhodovulum)) of 10 to 19 mm, a zone of inhibition at 25 µg/disc ([2]; strain 1 (Rhodovulum)) of 20 to 29 mm and a zone of inhibition at 10 µg/disc ([2]; strain 2 (Erythrobacter)) of under 6 mm. For the same compound, the zone of inhibition at 25 µg/disc ([2]; strain 2 (Erythrobacter)) was under 6 mm, the zone of inhibition at 10 µg/disc ([2]; strain 3 (Erythrobacter)) was under 6 mm and the zone of inhibition at 25 µg/disc ([2]; strain 3 (Erythrobacter)) was under 6 mm. The zone of inhibition at 10 µg/disc ([2]; strain 4 (Bacillus)) was 10 to 19 mm, the zone of inhibition at 25 µg/disc ([2]; strain 4 (Bacillus)) was 10 to 19 mm and the zone of inhibition at 10 µg/disc ([2]; strain 6 (Vibrio)) was under 6 mm. The zone of inhibition at 25 µg/disc ([2]; strain 6 (Vibrio)) was 10 to 19 mm, the zone of inhibition at 10 µg/disc ([2]; strain 7 (Vibrio)) was 10 to 19 mm and the zone of inhibition at 25 µg/disc ([2]; strain 7 (Vibrio)) was 10 to 19 mm. It also gave a zone of inhibition at 10 µg/disc ([2]; strain 8 (Bacillus)) of 10 to 19 mm, a zone of inhibition at 25 µg/disc ([2]; strain 8 (Bacillus)) of 10 to 19 mm and a zone of inhibition at 10 µg/disc ([2]; strain 9 (Bacillus)) of 10 to 19 mm. For the same compound, the zone of inhibition at 25 µg/disc ([2]; strain 9 (Bacillus)) was 10 to 19 mm, the zone of inhibition at 10 µg/disc ([2]; strain 10 (Halobacillus)) was 10 to 19 mm and the zone of inhibition at 25 µg/disc ([2]; strain 10 (Halobacillus)) was 10 to 19 mm. The zone of inhibition at 10 µg/disc ([2]; strain 11 (Pseudomonas)) was 10 to 19 mm, the zone of inhibition at 25 µg/disc ([2]; strain 11 (Pseudomonas)) was 20 to 29 mm and the zone of inhibition at 10 µg/disc ([2]; strain 12 (Gordonia)) was under 6 mm. For the same compound, the zone of inhibition at 25 µg/disc ([2]; strain 12 (Gordonia)) was 10 to 19 mm, the zone of inhibition at 10 µg/disc ([2]; strain 13 (Bacillus)) was 10 to 19 mm and the zone of inhibition at 25 µg/disc ([2]; strain 13 (Bacillus)) was 10 to 19 mm. For the same compound, the zone of inhibition at 10 µg/disc ([2]; strain 14 (Vibrio)) was under 6 mm, the zone of inhibition at 25 µg/disc ([2]; strain 14 (Vibrio)) was 6 to 9 mm and the zone of inhibition at 10 µg/disc ([2]; strain 16 (Pseudoalteromonas)) was 6 to 9 mm. The zone of inhibition at 25 µg/disc ([2]; strain 16 (Pseudoalteromonas)) was 10 to 19 mm, the zone of inhibition at 10 µg/disc ([2]; strain 17 (Gordonia)) was 10 to 19 mm and the zone of inhibition at 25 µg/disc ([2]; strain 17 (Gordonia)) was 10 to 19 mm. For the same compound, the zone of inhibition at 10 µg/disc ([2]; strain 18 (Microbacterium)) was 10 to 19 mm, the zone of inhibition at 25 µg/disc ([2]; strain 18 (Microbacterium)) was 10 to 19 mm and the zone of inhibition at 10 µg/disc ([2]; strain 19 (Erythrobacter)) was under 6 mm. It also gave a zone of inhibition at 25 µg/disc ([2]; strain 19 (Erythrobacter)) of under 6 mm, a zone of inhibition at 10 µg/disc ([2]; strain 20) of under 6 mm and a zone of inhibition at 25 µg/disc ([2]; strain 20) of under 6 mm. The zone of inhibition at 10 µg/disc ([2]; strain 21) was 10 to 19 mm, the zone of inhibition at 25 µg/disc ([2]; strain 21) was 10 to 19 mm and the zone of inhibition at 10 µg/disc ([2]; strain 22) was 6 to 9 mm. It also gave a zone of inhibition at 25 µg/disc ([2]; strain 22) of 20 to 29 mm, a zone of inhibition at 10 µg/disc ([2]; strain 24) of under 6 mm and a zone of inhibition at 25 µg/disc ([2]; strain 24) of 20 to 29 mm. The zone of inhibition at 10 µg/disc ([2]; strain 26) was under 6 mm, the zone of inhibition at 25 µg/disc ([2]; strain 26) was 20 to 29 mm and the zone of inhibition at 10 µg/disc ([2]; strain 27) was under 6 mm. It also gave a zone of inhibition at 25 µg/disc ([2]; strain 27) of under 6 mm, a zone of inhibition at 10 µg/disc ([2]; strain 28) of 10 to 19 mm and a zone of inhibition at 25 µg/disc ([2]; strain 28) of 10 to 19 mm. For the same compound, the zone of inhibition at 10 µg/disc ([2]; strain 29) was 10 to 19 mm, the zone of inhibition at 25 µg/disc ([2]; strain 29) was 10 to 19 mm and the zone of inhibition at 10 µg/disc ([2]; strain 30) was 10 to 19 mm. For the same compound, the zone of inhibition at 25 µg/disc ([2]; strain 30) was 10 to 19 mm.

In the case of CN(C)[C@@H]1C(O)=C(C(N)=O)C(=O)[C@@]2(O)C(O)=C3C(=O)c4c(O)cccc4[C@@](C)(O)[C@H]3C[C@@H]12 [Tet, tetracycline], the zone of inhibition at 5 µg/disc ([2]; strain 1 (Rhodovulum)) is reported as under 6 mm, the zone of inhibition at 30 µg/disc ([2]; strain 1 (Rhodovulum)) is reported as under 6 mm and the zone of inhibition at 5 µg/disc ([2]; strain 2 (Erythrobacter)) is reported as under 6 mm. It also gave a zone of inhibition at 30 µg/disc ([2]; strain 2 (Erythrobacter)) of under 6 mm, a zone of inhibition at 5 µg/disc ([2]; strain 3 (Erythrobacter)) of under 6 mm and a zone of inhibition at 30 µg/disc ([2]; strain 3 (Erythrobacter)) of under 6 mm. For the same compound, the zone of inhibition at 5 µg/disc ([2]; strain 4 (Bacillus)) was 10 to 19 mm, the zone of inhibition at 30 µg/disc ([2]; strain 4 (Bacillus)) was 10 to 19 mm and the zone of inhibition at 5 µg/disc ([2]; strain 6 (Vibrio)) was under 6 mm. For the same compound, the zone of inhibition at 30 µg/disc ([2]; strain 6 (Vibrio)) was 6 to 9 mm, the zone of inhibition at 5 µg/disc ([2]; strain 7 (Vibrio)) was under 6 mm and the zone of inhibition at 30 µg/disc ([2]; strain 7 (Vibrio)) was 6 to 9 mm. The zone of inhibition at 5 µg/disc ([2]; strain 8 (Bacillus)) was 6 to 9 mm, the zone of inhibition at 30 µg/disc ([2]; strain 8 (Bacillus)) was 10 to 19 mm and the zone of inhibition at 5 µg/disc ([2]; strain 9 (Bacillus)) was 10 to 19 mm. The zone of inhibition at 30 µg/disc ([2]; strain 9 (Bacillus)) was 10 to 19 mm, the zone of inhibition at 5 µg/disc ([2]; strain 10 (Halobacillus)) was 30 to 39 mm and the zone of inhibition at 30 µg/disc ([2]; strain 10 (Halobacillus)) was 10 to 19 mm. It also gave a zone of inhibition at 5 µg/disc ([2]; strain 11 (Pseudomonas)) of under 6 mm, a zone of inhibition at 30 µg/disc ([2]; strain 11 (Pseudomonas)) of under 6 mm and a zone of inhibition at 5 µg/disc ([2]; strain 12 (Gordonia)) of under 6 mm. The zone of inhibition at 30 µg/disc ([2]; strain 12 (Gordonia)) was 30 to 39 mm, the zone of inhibition at 5 µg/disc ([2]; strain 13 (Bacillus)) was 6 to 9 mm and the zone of inhibition at 30 µg/disc ([2]; strain 13 (Bacillus)) was 10 to 19 mm. It also gave a zone of inhibition at 5 µg/disc ([2]; strain 14 (Vibrio)) of under 6 mm, a zone of inhibition at 30 µg/disc ([2]; strain 14 (Vibrio)) of 10 to 19 mm and a zone of inhibition at 5 µg/disc ([2]; strain 16 (Pseudoalteromonas)) of under 6 mm. The zone of inhibition at 30 µg/disc ([2]; strain 16 (Pseudoalteromonas)) was under 6 mm, the zone of inhibition at 5 µg/disc ([2]; strain 17 (Gordonia)) was under 6 mm and the zone of inhibition at 30 µg/disc ([2]; strain 17 (Gordonia)) was under 6 mm. The zone of inhibition at 5 µg/disc ([2]; strain 18 (Microbacterium)) was under 6 mm, the zone of inhibition at 30 µg/disc ([2]; strain 18 (Microbacterium)) was 6 to 9 mm and the zone of inhibition at 5 µg/disc ([2]; strain 19 (Erythrobacter)) was under 6 mm. It also gave a zone of inhibition at 30 µg/disc ([2]; strain 19 (Erythrobacter)) of under 6 mm, a zone of inhibition at 5 µg/disc ([2]; strain 20) of under 6 mm and a zone of inhibition at 30 µg/disc ([2]; strain 20) of 10 to 19 mm. For the same compound, the zone of inhibition at 5 µg/disc ([2]; strain 21) was under 6 mm, the zone of inhibition at 30 µg/disc ([2]; strain 21) was 10 to 19 mm and the zone of inhibition at 5 µg/disc ([2]; strain 22) was 6 to 9 mm. The zone of inhibition at 30 µg/disc ([2]; strain 22) was 10 to 19 mm, the zone of inhibition at 5 µg/disc ([2]; strain 24) was under 6 mm and the zone of inhibition at 30 µg/disc ([2]; strain 24) was under 6 mm. It also gave a zone of inhibition at 5 µg/disc ([2]; strain 26) of under 6 mm, a zone of inhibition at 30 µg/disc ([2]; strain 26) of under 6 mm and a zone of inhibition at 5 µg/disc ([2]; strain 27) of under 6 mm. It also gave a zone of inhibition at 30 µg/disc ([2]; strain 27) of 10 to 19 mm, a zone of inhibition at 5 µg/disc ([2]; strain 28) of under 6 mm and a zone of inhibition at 30 µg/disc ([2]; strain 28) of 10 to 19 mm. The zone of inhibition at 5 µg/disc ([2]; strain 29) was 10 to 19 mm, the zone of inhibition at 30 µg/disc ([2]; strain 29) was 20 to 29 mm and the zone of inhibition at 5 µg/disc ([2]; strain 30) was 10 to 19 mm. It also gave a zone of inhibition at 30 µg/disc ([2]; strain 30) of 10 to 19 mm.
